Marks after values point to notes of the source that are not given here.
Assays:
Assay type in all cases: in vivo, ICR mice
[1] = system: ovariectomized female mice; experiment: Tail bleeding time (thrombosis side effect) in ovariectomized female mice; conditions: for Bleeding time (tail, mean ± SD): ovariectomized mice, oral, 30 min after last administration, n = 11
[2] = system: ovariectomized female mice; experiment: Femoral mineral content (BMC, ash weight/dry weight) in ovariectomized female mice; conditions: ratio femoral ash weight/dry weight, oral, 4 weeks, n = 11
[3] = system: ovariectomized female mice; experiment: Femoral dry weight in ovariectomized female mice; conditions: oral, 4 weeks, n = 11
[4] = system: ovariectomized female mice; experiment: Pathological sections of oviduct walls, endometria and uterine glands of ovariectomized female mice
Method: Pathological sections of oviduct walls, endometria, and uterine glands of ovariectomized female mice were prepared to evaluate the influence of the complex on the oviduct walls, endometria, and uterine glands of the ovariectomized mice.

[5] = system: ovariectomized female mice; experiment: Femoral ash weight in ovariectomized female mice; conditions: oral, 4 weeks, n = 11
[6] = system: ovariectomized female mice; experiment: Femoral length and ratio of femoral ash weight to femoral length in ovariectomized female mice; conditions: oral, 4 weeks, n = 11
[7] = system: ovariectomized female mice; experiment: Trabecular bone density in ovariectomized female mice (CT of left femur); conditions: oral, 4 weeks, n = 11
[8] = system: ovariectomized female mice; experiment: Femoral calcium content in ovariectomized female mice (OCPC method); conditions: oral, 4 weeks, n = 11
[9] = system: ovariectomized female mice; experiment: Uterine weight (endometrial hyperplasia side effect) in ovariectomized female mice; conditions: for Uterine weight (mean ± SD): ovariectomized mice, oral, n = 11
[10] = at both doses of 2.3 μmol/kg/day and 0.23 μmol/kg/day
[11] = ovariectomized mouse treated at 2.3 μmol/kg/day
[12] = summary of pathological sections FIG. 3A to FIG. 8E

`C[C@]12CC[C@@H]3c4ccc(O)cc4CC[C@H]3[C@@H]1CC[C@@H]2O` [17β-estradiol] was tested, and the “Effect on tail bleeding time (in words)” value [1, 10] was “significantly shortened the tail bleeding time”, the “Bleeding time (tail, mean ± SD)” value ([1]; dose 0.23 μmol/kg/day) was 640.6 ± 189.6^a s and the “Bleeding time (tail, mean ± SD)” value ([1]; dose 2.3 μmol/kg/day) was 659.1 ± 203.8^a s. For the same compound, the “BMC (femoral mineral content, mean ± SD)” value ([2]; dose 0.23 μmol/kg/day) was 0.560 ± 0.041 mg/mg, the “BMC (femoral mineral content, mean ± SD)” value ([2]; dose 2.3 μmol/kg/day) was 0.620 ± 0.020^a mg/mg and the “Femoral dry weight (mean ± SD)” value ([3]; dose 0.23 μmol/kg/day) was 49.08 ± 6.02^b mg. For the same compound, the “Femoral dry weight (mean ± SD)” value ([3]; dose 2.3 μmol/kg/day) was 54.42 ± 2.96^a mg, the “Thickness of endometrium (pathological section)” value [4, 11] was 23.08 μm and the “Thickness of oviduct wall (pathological section)” value [4, 11] was 152.11 μm. For the same compound, the “Uterine gland pathology (in words)” value [4, 11] was “the density of the tissue around the uterine gland is significantly reduced”, the “Lesions of uterine glands (in words)” value [4, 12] was “could cause lesions of uterine glands” and the “Thickening of endometria and oviduct walls (in words)” value [4, 12] was “could induce the thickening of endometria and oviduct walls”. The “Femoral ash weight (mean ± SD)” value ([5]; dose 0.23 μmol/kg/day) was 29.08 ± 5.42^b mg, the “Femoral ash weight (mean ± SD)” value ([5]; dose 2.3 μmol/kg/day) was 33.37 ± 3.21^a mg and the “Ash weight/length (mean ± SD)” value ([6]; dose 0.23 μmol/kg/day) was 1.72 ± 0.22 mg/mm. The “Ash weight/length (mean ± SD)” value ([6]; dose 2.3 μmol/kg/day) was 2.02 ± 0.20^a mg/mm, the “Trabecular bone density (mean ± SD)” value ([7]; dose 0.23 μmol/kg/day) was 595.35 ± 30.47^d mg/cm^3 and the “Trabecular bone density (mean ± SD)” value ([7]; dose 2.3 μmol/kg/day) was 748.57 ± 33.37^a mg/cm^3. The “Femoral calcium content (mean ± SD)” value ([8]; dose 0.23 μmol/kg/day) was 23.34 ± 0.70%, the “Femoral calcium content (mean ± SD)” value ([8]; dose 2.3 μmol/kg/day) was 24.57 ± 1.85^a % and the “Effect on uterine weight (in words)” value [9, 10] was “significantly increased the uterine weight”. For the same compound, the “Uterine weight (mean ± SD)” value ([9]; dose 0.23 μmol/kg) was 0.200 ± 0.041^a g and the “Uterine weight (mean ± SD)” value ([9]; dose 2.3 μmol/kg) was 0.207 ± 0.045^a g.
